Test results as given in US10947252B2, “Inhibitors of KEAP1-Nrf2 protein-protein interaction” (Janssen Pharmaceutica NV, priority 2018, dated 2021).

What was measured:
[1] = target: Kelch domain of human KEAP1 (321-624 aa) (Homo sapiens (Human), UniProt Q14145); test: KEAP1 KELCH ThermoFluor binding assay; details: KEAP Kelch […], 1,8-ANS, pH 7.0, average of results obtained, read-out: Tf Kd;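 further: Ligand-induced melting temperature shift of E. coli-expressed KEAP1 Kelch protein, Kd estimated from concentration-response curves of ΔTm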
Sequence of Kelch domain of human KEAP1 (321-624 aa) (Q14145 321-624): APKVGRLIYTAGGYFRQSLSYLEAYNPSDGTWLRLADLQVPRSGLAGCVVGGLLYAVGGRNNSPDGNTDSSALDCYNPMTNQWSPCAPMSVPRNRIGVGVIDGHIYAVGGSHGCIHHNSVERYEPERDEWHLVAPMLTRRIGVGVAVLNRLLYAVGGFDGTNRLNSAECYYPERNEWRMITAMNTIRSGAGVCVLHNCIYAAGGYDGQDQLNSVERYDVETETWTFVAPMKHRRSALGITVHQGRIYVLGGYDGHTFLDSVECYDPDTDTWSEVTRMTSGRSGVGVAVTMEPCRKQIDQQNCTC

[2] = test system: Glo-Response ARE-luc2P HEK293 cell line; test: ARE luciferase reporter cell-based assay; details: average of results obtained;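 further: luciferase signal tracks Nrf2 activation of the ARE once compounds disrupt KEAP1-Nrf2 binding, read with One-Glo reagent, DMSO serving as low control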

SMILES | Kd [1] [nM] | EC50 ([2]; Homo sapiens, HEK293, 24 h) [nM] | EC50 ([2]; 24 hours) [nM]
CCn1nnc2c(C)c([C@@H](CC(=O)O)c3ccc(C)c(CN4CC5(COC5)Oc5ncccc5S4(=O)=O)n3)ccc21 (single isomer, unassigned) [Example 242, (*R)-3-(6-((1′,1′-Dioxidospiro[oxetane-3,4′-pyrido[2,3-b][1,4,5]oxathiazepin]-2′(3′H)-yl)methyl)-5-methylpyridin-2-yl)-3-(1-ethyl-4-methyl-1H-benzo[d][1,2,3]triazol-5-yl)propanoic Acid] | 1.8 | 110 | 
Cc1ccc([C@@H](CC(=O)O)c2ccc3c(nnn3C3CC3)c2C)cc1CN1CC2(CC2)N(C)c2ncccc2S1(=O)=O (single isomer, unassigned) [Example 226, (*R)-3-(1-Cyclopropyl-4-methyl-1H-benzo[d][1,2,3]triazol-5-yl)-3-(4-methyl-3-((5′-methyl-1′,1′-dioxido-5′H-spiro[cyclopropane-1,4′-pyrido[2,3-f][1,2,5]thiadiazepin]-2′(3′H)-yl)methyl)phenyl)propanoic Acid] | 6 | 160 | 
Cc1ccc([C@H](CC(=O)O)c2cc(OC(F)F)c3c(c2)nnn3C)cc1CN1C[C@H]2CCCN2c2ncccc2S1(=O)=O (relative stereo) [Example 247, (*S)-3-(7-(Difluoromethoxy)-1-methyl-1H-benzo[d][1,2,3]triazol-5-yl)-3-(3-(((R)-5,5-dioxido-7a,8,9,10-tetrahydropyrido[2,3-f]pyrrolo[2,1-d][1,2,5]thiadiazepin-6(7H)-yl)methyl)-4-methylphenyl)propanoic Acid] | < 1 |  | 225
Cc1ccc([C@H](CC(=O)O)c2ccn3c(C(F)(F)F)nnc3c2C)cc1CN1CC2(CC2)Oc2nc(O)ccc2S1(=O)=O (single isomer, unassigned) [Example 103, (*S)-3-(3-((7′-Hydroxy-1′,1′-dioxidospiro[cyclopropane-1,4′-pyrido[2,3,-b][1,4,5]oxathiazepin]-2′(3′H)-yl)methyl)-4-methylphenyl)-3-(8-methyl-3-(trifluoromethyl)-[1,2,4]triazolo[4,3-a]pyridine-7-yl)propanoic Acid] | 1.6 | 9130 | 
Cc1ccc([C@H](CC(=O)O)c2ccn3c(C(F)F)nnc3c2C)cc1CN1CC2(CC2)Oc2ncc(F)cc2S1(=O)=O (single isomer, unassigned) [Example 527, (*S)-3-(3-(Difluoromethyl)-8-methyl-[1,2,4]triazolo[4,3-a]pyridin-7-yl)-3-(3-((8′-fluoro-1′,1′-dioxidospiro[cyclopropane-1,4′-pyrido[2,3-b][1,4,5]oxathiazepin]-2′(3′H)-yl)methyl)-4-methylphenyl)propanoic Acid] | < 1 | 22.2 | 
Cc1ccc([C@H](c2ccn3c(C(F)(F)F)nnc3c2C)C(C)(C)C(=O)O)cc1CN1C[C@@]2(CCOC2)Oc2ncccc2S1(=O)=O (single isomer, unassigned) [Example 386, (*R)-3-(3-(((*R)-1′,1′-Dioxido-4,5-dihydro-2H-spiro[furan-3,4′-pyrido[2,3-b][1,4,5]oxathiazepin]-2′(3′H)-yl)methyl)-4-methylphenyl)-2,2-dimethyl-3-(8-methyl-3-(trifluoromethyl)-[1,2,4]triazolo[4,3-a]pyridin-7-yl)propanoic Acid] | 1060 | 343 | 
Cc1ccc(C(CC(=O)O)c2ccn3c(C(F)F)nnc3c2C)cc1CN1C[C@]2(C)CCCN2c2ncccc2S1(=O)=O (stereo in doubt) [Example 475, 3-(3-(Difluoromethyl)-8-methyl-[1,2,4]triazolo[4,3-a]pyridin-7-yl)-3-(4-methyl-3-(((*S)-7a-methyl-5,5-dioxido-7a,8,9,10-tetrahydropyrido[2,3-f]pyrrolo[2,1-d][1,2,5]thiadiazepin-6(7H)-yl)methyl)phenyl)propanoic Acid] | < 1 | 406 | 
